From publication PMC11030672 (Cancer Immunology, Immunotherapy : CII, 2008)

Experiments:
HLA-A3 = experiment: Assembly assay for peptide binding to MHC class I molecules; details: T2-A3 cells
T2-A3 cells = experiment: 51Cr-release cytotoxicity of T cell clone 9 against peptide-pulsed T2-A3 cells; type: cell-based; details: peptide 10 μM; E:T ratios 9:1, 3:1, 1:1, 0,3:1; duplicates
[1] = tested on: HLA-A3+ melanoma cell line FM3; experiment: 51Cr-release cytotoxicity of clone 9 against FM3 melanoma cells; type: cell-based; details: unlabeled T2-A3 cells pulsed with 10 μM peptide; inhibitor to target ratio 20:1; Fig. 4b, c

| Sequence | binding to HLA-A3 (in words) (HLA-A3) | lysis of peptide-pulsed T2-A3 cells by clone 9 (T2-A3 cells) | cold target inhibition of FM3 killing by clone 9 [1] |
| --- | --- | --- | --- |
| ILRGSVAHK [Influenza NP265–273, reference compound] | high affinity |  |  |
| RAGLQVRKNK [Rho1] | only bound very weakly to HLA-A3 | effectively lysed |  |
| RLGLQVRKNK [Rho1L2] | bound with intermediate affinity | effectively lysed | completely abrogated the killing of FM3 melanoma cells |
